Read-outs that look alike come from different tables or passages of the source.
Assays:
[1] = system: Type 1 herpes simplex strain HFEM; experiment: Inhibition of hsv1 in infected Vero cells (Example 1); assay type: cell-based, herpes simplex virus; details: Human alphaherpesvirus 1, Vero; for inhibition at 1000 µg/mL: frusemide 1 mg/ml, digoxin 30 mcg/ml
Experimental: . Culture and assay methods follow those described by Lennette and Schmidt (1979) for herpes simplex virus and Vero cells with minor modifications.
Type 1 herpes simplex strain HFEM is a derivative of the Rockerfeller strain HF (Wildy 1955), and Type 2 herpes simplex strain 3345, a penile isolate (Skinner et al 1977) were used as prototype strains. These prototypes were stored at −80° C. until needed.
African Green Monkey kidney cells (vero) were obtained from the National Institute of Biological Standards and Control UK and were used as the only cell line for all experiments in the examples.
Cells and viruses were maintained on Glasgows modified medium supplemented with 10% foetal bovine serum.

[2] = system: type 2 herpes simplex strain 3345; experiment: Inhibition of hsv2 replication in African green monkey kidney cells (Example 3); assay type: cell-based, herpes simplex virus; details: for inhibition at 15 µg/mL: Digoxin 15 mcg/ml; for inhibition at 15 µg/mL / inhibition at 30 µg/mL: Frusemide 0 mg/ml; for inhibition at 30 µg/mL: Digoxin 30 mcg/ml; for Inhibition of virus replication / inhibition at 500 µg/mL: Digoxin 0 mcg/ml; for Inhibition of virus replication: Frusemide 1.0 mg.ml; for inhibition at 500 µg/mL: Frusemide 0.5 mg/ml, read-out: Inhibition of virus replication
Source text: The compositions were applied to different types of vero cells (African green monkey kidney cells and […]) and infected with type 2 herpes simplex virus (strains 3345 and 180) at low, intermediate, and high multiplicities of infection (M0I). Inhibition of virus replication was scored on the scale:
The following results were obtained using African green monkey kidney cells and type 2 herpes simplex strain 3345: […]

[3] = cited from earlier work
[4] = Human alphaherpesvirus 2, read-out: Inhibition of virus replication, HIGH M0I HSV2
[5] = Human alphaherpesvirus 2, read-out: Inhibition of virus replication, INT. M0I HSV2
[6] = Human alphaherpesvirus 2, read-out: Inhibition of virus replication, LOW M0I HSV2

`C[C@H]1O[C@@H](O[C@H]2[C@@H](O)C[C@H](O[C@H]3[C@@H](O)C[C@H](O[C@H]4CC[C@@]5(C)[C@H](CC[C@@H]6[C@@H]5C[C@@H](O)[C@]5(C)[C@@H](C7=CC(=O)OC7)CC[C@]65O)C4)O[C@@H]3C)O[C@@H]2C)C[C@H](O)[C@@H]1O` [digoxin] gave an inhibition at 30 µg/mL ([1]; read-out: Inhibition of hsv1, Multiplicity of infection High, frusemide 1 mg/ml, digoxin 30 mcg/ml) of 0%, an inhibition at 30 µg/mL ([1]; read-out: Inhibition of hsv1, Multiplicity of infection Low, frusemide 1 mg/ml, digoxin 30 mcg/ml) of 40% and an inhibition at 30 µg/mL ([1]; read-out: Inhibition of hsv1, Multiplicity of infection Medium, frusemide 1 mg/ml, digoxin 30 mcg/ml) of 20%. For the same molecule, the inhibition at 15 µg/mL [2, 4] was 0%, the inhibition at 30 µg/mL [2, 4] was 0% and the inhibition at 15 µg/mL [2, 5] was 0%. It also gave an inhibition at 30 µg/mL [2, 5] of 20%, an inhibition at 15 µg/mL [2, 6] of 0% and an inhibition at 30 µg/mL [2, 6] of 60%. For the same molecule, the solubility ([3]; in diluted (50%) alcohol and in chloroform) was “slightly soluble”, the solubility ([3]; in pyridine) was “freely soluble” and the solubility ([3]; in water and in ether) was “practically insoluble”.
Molecule `NS(=O)(=O)c1cc(C(=O)O)c(NCc2ccco2)cc1Cl` [frusemide, 4-chloro-N-furfuryl-5-sulfamoylanthranilic acid] has an inhibition at 1000 µg/mL ([1]; Multiplicity of infection High) of 0%, an inhibition at 1000 µg/mL ([1]; Multiplicity of infection Low) of 20% and an inhibition at 1000 µg/mL ([1]; Multiplicity of infection Medium) of 20%. The “Inhibition of virus replication” value ([2]; HIGH M0I HSV2) was “++ (40% inhibition)”, the inhibition at 500 µg/mL ([2]; Human alphaherpesvirus 2, HIGH M0I HSV2) was 0% and the inhibition at 500 µg/mL ([2]; Human alphaherpesvirus 2, INT. M0I HSV2) was 20%. For the same molecule, the inhibition at 500 µg/mL ([2]; Human alphaherpesvirus 2, LOW M0I HSV2) was 20%, the “Inhibition of virus replication” value ([2]; INT. M0I HSV2) was “+++ (60% inhibition)” and the “Inhibition of virus replication” value ([2]; LOW M0I HSV2) was “+++ (60% inhibition)”.
